{"source": "patent US20250268931A1", "about": "“TRANSCRIPTIONAL INHIBITOR FOR IMMUNE-RELATED GENE” (The University of Tokyo, priority 2022, published 2025)", "key": {"[1]": {"tested_on": "IFN-β, IL-6 and TNF-α", "experiment": "In vivo cytokine protein concentration in plasma after Poly(I:C) (ELISA)", "parameters": "species or system mice", "procedure": "[…] Two hours after the administration of Poly(I:C), blood was collected, and individual protein concentrations of IFN-β, IL-6 and TNF-α in the plasma were then measured by an ELISA method.\n(§1) 2×10^4 Raw264.7 cells were seeded on a plate, and were then treated with IRF-PIPA 1, IRF-PIPA 2, IRF-PIPA 3 or IRF-PIPA 4 for 24 hours. Thereafter, the cells were stimulated with LPS (Lipopolysaccharide, SIGMA-ALDRICH) for 16 hours, and the culture supernatant was then recovered. The concentration of cytokine in the culture supernatant was measured using ELISA kit (R&D SYSTEMS) according to the standard protocols. The culture supernatant was diluted with 1% BSA-PBS, as necessary, and was then analyzed. 2.5×10^5 Mouse peritoneal macrophages were seeded on a plate, and were then treated with IRF-PIPA 3 for 16 or 24 hours. Thereafter, the cells were stimulated with Poly(I:C) (InvivoGen) for 16 hours or with mRNA vaccine (Moderna) for 20 to 24 hours, and the culture supernatant was then recovered. The concentration of cytokine in the culture supernatant was measured using ELISA kit (R&D SYSTEMS) according to the same standard protocols. On the other hand, the concentration of cytokine in mouse plasma was measured by administering 400 μg/mouse IRF-PIPA 3 into the abdominal cavity of wild-type mice, then administering 250 μg of Poly(I:C) into the same abdominal cavity 24 hours after the IRF-PIPA 3 administration, then collecting blood further 2 hours after the Poly(I:C) administration, and then measuring the cytokine concentration in the plasma using ELISA kit (R&D SYSTEMS) according to standard protocols."}, "[2]": {"tested_on": "IFN-β, IL-6 and TNF-α", "experiment": "Cytokine protein expression in peritoneal macrophages treated with LNP-mRNA encoding ovalbumin (ELISA)", "assay_type": "cell-based, mice", "conditions": "6 μM, LNP-mRNA (OVA) 0.5 μg/mL 20 to 24 hours", "procedure": "Peritoneal macrophages were harvested from wild-type mice, and were then seeded on a 96-well plate at a cell density of 2.5×10^5 cells/well, followed by culturing for 2 hours. Thereafter, the cultured cells were washed twice with PBS. Subsequently, IRF-PIPA 3 was suspended in 10% FBS-RPMI or D-MEM to a final concentration of 6 μM, and was then added to the wells. After completion of the culture for 16 hours, an mRNA vaccine was added to the cultured cells to a final concentration of 0.5 μg/mL, and the obtained mixture was then cultured for 20 to 24 hours. Thereafter, the culture supernatant was recovered, and each protein concentration of IFN-β, IL-6 or TNF-α was then measured by ELISA.\nas §1, with “Thereafter, the cells were stimulated with Poly(I:C) (InvivoGen) for 16 hours or with mRNA vaccine (Moderna) for 20 to 24 hours, and the culture supernatant was then recovered.” left out"}, "[3]": {"tested_on": "IFN-β, IL-6 and TNF-α", "experiment": "Cytokine concentration in culture supernatant of Poly(I:C)-stimulated peritoneal macrophages (ELISA)", "assay_type": "cell-based, mice", "conditions": "3 or 10 μM 24 h, Poly(I:C) 1 μg/mL 16 h", "procedure": "Peritoneal macrophages were harvested from wild-type mice, and were then seeded on a 96-well plate at a cell density of 2.5×10^5 cells/well, followed by culturing for 2 hours. Thereafter, the cultured cells were washed twice with PBS. Subsequently, IRF-PIPA 3 was suspended in 10% FBS-RPMI or D-MEM to a final concentration of 3 or 10 µM, and was then added to the wells. After completion of the culture for 24 hours, Poly(I:C) was added to the cultured cells to a final concentration of 1 μg/mL, and the obtained mixture was then cultured for 16 hours. The supernatant was recovered, and the concentrations of IFN-β, IL-6, and TNF-α were then measured by ELISA.\nMouse peritoneal macrophages were harvested from 6-week-old CL57B/6 mice (CLEA Japan, Inc.) by peritoneal lavage using 7 mL of PBS (Nacalai Tesque), and the cells adhered to the culture plate by culture for 2 hours were used in experiments. The culture was carried out using an RPMI or D-MEM medium (Nacalai Tesque) containing 10% FBS (SIGMA-ALDRICH) and Penicillin-Streptomycin mixed solution (Nacalai Tesque). The CL57B/6 mice were bred in an SPF environment.\nas §1, with “Thereafter, the cells were stimulated with LPS (Lipopolysaccharide, SIGMA-ALDRICH) for 16 hours, and the culture supernatant was then recovered.” left out, “2.5×10^5 Mouse peritoneal macrophages were seeded on a plate, and were then treated with IRF-PIPA 3 for 16 or 24 hours. Thereafter, the cells were stimulated with Poly(I:C) (InvivoGen) for 16 hours or with mRNA vaccine (Moderna) for 20 to 24 hours, and the culture supernatant was then recovered.” left out"}, "[4]": {"tested_on": "Ifnb1, Il6, and Tnf genes", "experiment": "In vivo relative mRNA expression in peritoneal macrophages after Poly(I:C) (qRT-PCR)", "parameters": "species or system mice", "conditions": "400 μg/mouse i.p., Poly(I:C) 250 μg/mouse i.p. 3 h later, peritoneal macrophages 2 h later", "procedure": "IRF-PIPA 3 was administered into the abdominal cavity of wild-type mice in an amount of 400 μg/mouse, and 3 hours after the administration, 250 μg/mouse Poly(I:C) was also administered into the abdominal cavity. Two hours after the administration of Poly(I:C), peritoneal macrophages were recovered, and the relative expression levels of Ifnb1, Il6, and Tnf genes were then analyzed by qRT-PCR."}, "[5]": {"tested_on": "IFN-β", "experiment": "IFN-β transcription in peritoneal macrophages treated with mRNA vaccine against SARS-COV-2 (qRT-PCR, ELISA)", "assay_type": "cell-based, mice", "conditions": "3 μM or 10 μM, mRNA vaccine (Moderna) 1 μg/mL 20 hours"}, "[6]": {"tested_on": "IFN-β", "experiment": "IFN-β concentration in culture supernatant of LPS-stimulated Raw264.7 cells (ELISA)", "assay_type": "cell-based", "conditions": "PIPA 1, 3 or 10 μM 24 h, then LPS 20 ng/mL 16 h", "procedure": "Raw264.7 cells, a macrophage cell line, were seeded on a 96-well plate at a cell density of 2×10^4 cells/well, and were then culture for 8 hours for adhesion. Thereafter, IRF-PIPA was added to the cultured cells to final concentrations of 1, 3, or 10 μM. After completion of the culture for 24 hours, LPS was added to the cultured cells to a final concentration of 20 ng/mL, and the obtained mixture was then cultured for 16 hours, followed by the recovery of the supernatant. The supernatant was 2-fold diluted with 1% BSA-PBS, and the IFN-β concentration was then measured by ELISA.\nRaw264.7 cells, a cell line, were purchased from RIKEN Cell Bank, and were then cultured using D-MEM (Nacalai Tesque) containing 10% FBS (SIGMA-ALDRICH) and Penicillin-Streptomycin mixed solution (Nacalai Tesque).\nas §1"}, "[7]": {"tested_on": "RBD", "experiment": "RBD concentration in plasma after mRNA vaccine plus Poly(I:C) (ELISA)", "assay_type": "in vivo, mice", "conditions": "400 μg/mouse i.m. or i.p., 24 h later mRNA vaccine 1 μg/mouse i.m. plus Poly(I:C) 250 μg/mouse, blood one day later"}, "[8]": {"conditions": "400 μg/mouse i.p., Poly(I:C) 250 μg/mouse i.p. 24 hours, 1, 4 or 7 days later, blood 2 h later"}, "[9]": {"conditions": "plasma IFN-β, IL-6, TNF-α, Poly(I:C) 1, 4 or 7 days after IRF-PIPA 3"}}, "data": [{"smiles": "CC(=O)Nc1cn(C)c(C(=O)Nc2cc(C(=O)NCCC(=O)Nc3cc(C(=O)Nc4cn(C)c(C(=O)NCCC(=O)Nc5cn(C)c(C(=O)NCCCC(=O)Nc6cc(C(=O)Nc7cc(C(=O)Nc8cc(C(=O)NCCC(=O)Nc9cc(C(=O)Nc%10cc(C(=O)NCCC(=O)NCCCN(C)C)n(C)c%10)n(C)c9)n(C)c8)n(C)c7)n(C)c6)n5)n4)n(C)c3)n(C)c2)n1", "note": "[IRF-PIPA 3]", "values": [{"measurement": "IFN-β protein concentration in plasma", "setting": "[1]; [8]", "value": "significantly suppressed"}, {"measurement": "IL-6 protein concentration in plasma", "setting": "[1]; [8]", "value": "significantly suppressed"}, {"measurement": "TNF-α protein concentration in plasma", "setting": "[1]; [8]", "value": "significantly suppressed"}, {"measurement": "time after administration of highest suppressive effect", "setting": "[1]; [9]", "value": 1, "unit": "days"}, {"measurement": "time after administration until which the suppressive effect was sustained (attenuated)", "setting": "[1]; [9]", "value": "≥ 7", "unit": "days"}, {"measurement": "expression of IFN-β protein after LNP-mRNA", "setting": "[2]", "value": "strongly suppressed"}, {"measurement": "expression of IL-6 protein after LNP-mRNA", "setting": "[2]", "value": "strongly suppressed"}, {"measurement": "expression of TNF-α protein after LNP-mRNA", "setting": "[2]", "value": "strongly suppressed"}, {"measurement": "suppression of IFN-β production", "setting": "[3]", "value": "strongly suppresses IFN-β production in a concentration-dependent manner"}, {"measurement": "suppression of IL-6", "setting": "[3]", "value": "suppressed, although less strongly than IFN-β"}, {"measurement": "suppression of TNF-α", "setting": "[3]", "value": "suppressed, although less strongly than IFN-β"}, {"measurement": "expression level of Ifnb1 mRNA in vivo", "setting": "[4]", "value": "significantly suppressed"}, {"measurement": "expression level of Il6 mRNA in vivo", "setting": "[4]", "value": "significantly suppressed"}, {"measurement": "expression level of Tnf mRNA in vivo", "setting": "[4]", "value": "significantly suppressed"}, {"measurement": "IFN-b transcription after addition of the mRNA vaccine (Ifnb1 relative expression, IFN-β concentration)", "setting": "[5]", "value": "strongly suppressed IFN-b transcription after addition of the mRNA vaccine in a concentration-dependent manner"}, {"measurement": "concentration dependence of suppression of IFN-β production", "setting": "[6]", "value": "concentration-dependent suppression was observed"}, {"measurement": "suppression of IFN-β production", "setting": "[6]; ELISA of supernatant", "value": "strongest suppressive action among the 4 PIPAs"}, {"measurement": "concentration of the RBD protein in plasma", "setting": "[7]", "value": "a decrease in the concentration of the RBD protein caused by Poly(I: C) was suppressed"}]}]}
